Results taken from patent publication US10239856B2, “Synthesis of resorcylic acid lactones useful as therapeutic agents” (UNIVERSITY DE STRASBOURG, priority 2008, dated 2019).
Where two headings read alike, the source gives them in different places.

Key:
[1] = molecular target: HSP90α (Homo sapiens, UniProt P07900); assay: Affinity to HSP90α; type: binding
[2] = test system: Her-2 (HSP90 client); assay: Her-2 (HSP90 client) degradation (client depletion); type: cell-based
Protocol: A number of the compounds of the invention were tested for affinity to HSP90α (see Kim et al., J. Biomol. Screen., 2004, 9, 375), Her-2 (HSP90 client) degradation (see Xu et al., J. Biol. Chem., 2001, 276, 3702), and cytotoxicity against SKBr3 and HCC1954, two breast cancer cell lines which over express Her-2.

[3] = test system: SKBr3; assay: Cytotoxicity against SKBr3 breast cancer cells; type: cell-based; conditions: Homo sapiens, SK-BR-3, first value of cell
Protocol: (§1) Compounds of the invention were assayed for cytotoxicity in HCC1954 and SK-BR-3 tumor cells.

[4] = test system: HCC1954; assay: Cytotoxicity against HCC1954 breast cancer cells; type: cell-based; conditions: Homo sapiens, second value of cell
Protocol: as §1

[5] = read-out: Client Depletion; Her-2 degradation
[6] = Her-2 degradation; read-out: Client Depletion

Row | Structure (SMILES) | IC50 ([1]; HSP90 affinity) | IC50 [2, 5] | IC50 ([1]; read-out: HSP90 affinity) | IC50 [2, 6] | IC50 [3] | IC50 [4]
1 | CC1CCCN(C(=O)CON=C2/C=C/CC/C=C/CCOC(=O)c3c(O)cc(O)cc3C2)C1 (stereo not drawn) [compound 373] | 59 nM | 89 nM |  |  |  | 
2 | CC(C)CN(CC(C)C)C(=O)CON=C1/C=C/CC/C=C/CCOC(=O)c2c(O)cc(O)cc2C1 [compound 390] | 94 nM | 549 nM |  |  |  | 
3 | CCCC1C/C=C/CC/C(C)=C/C(=NOCC(=O)N(CC)CC)Cc2cc(O)cc(O)c2C(=O)O1 (stereo not drawn) [compound 363] | 900 nM | > 10000 nM |  |  |  | 
4 | CCC1CCCCN1C(=O)CON=C1/C=C/CC/C=C/CCOC(=O)c2c(O)cc(O)cc2C1 (stereo not drawn) [compound 371] | 243 nM | 629 nM |  |  |  | 
5 | O=C(CON=C1/C=C/CC/C=C/CCOC(=O)c2c(O)cc(O)c(Cl)c2C1)NC1CCCCC1 [13k] |  |  | 90 nM | 250 nM | 550 nM | 450 nM
6 | C=C/C1=C\CC/C=C/C(=NOCC(=O)N2CCCCC2)Cc2c(Cl)c(O)cc(O)c2C(=O)OCC1 [compound 397] | 432 nM | 980 nM |  |  |  | 
7 | C/C1=C\C(=NOCC(=O)N2CCCCC2)Cc2cc(O)cc(O)c2C(=O)OCC/C=C/CC1 [compound 349] | 46 nM | 105 nM |  |  |  | 
8 | O=C1OCC/C=C/CC/C=C/C(=NOCC(=O)N2CCNCC2)Cc2c(Cl)c(O)cc(O)c21 [13e] |  |  | > 10000 nM | > 10000 nM | > 10000 nM | > 10000 nM
9 | CC1/C=C/C[C@@H](C)OC(=O)c2c(O)cc(O)c(Cl)c2CC(=NOCC(=O)N2CCCCC2)/C=C/C1 (stereo partly drawn) [compound 369] | 154 nM | 677 nM |  |  |  | 
10 | C[C@@H]1C[C@H]2O[C@@H]2/C=C\C=C\C(=O)Cc2c(Cl)c(O)cc(O)c2C(=O)O1 [radicicol, reference compound] |  | 450 nM |  |  |  | 
11 | O=C1OCC/C=C/CC/C=C/C(=N\OCC(=O)N2CCCCC2)Cc2cc(O)cc(O)c21 [14b] | 110 nM | 5000 nM |  |  | > 10000 nM | > 10000 nM
12 | CC1CCCC(C)N1C(=O)CON=C1/C=C/CC/C=C/CCOC(=O)c2c(O)cc(O)cc2C1 (stereo not drawn) [compound 374] | 238 nM | 2030 nM |  |  |  | 
13 | CCN(CC)C(=O)CON=C1/C=C(\C)CC/C=C/C[C@@H](C)OC(=O)c2c(O)cc(O)cc2C1 [compound 351] | 204 nM | 900 nM |  |  |  | 
14 | O=C1OCCC/C=C/CC/C=C/C(=NOCC(=O)N2CCCCC2)Cc2c(Cl)c(O)cc(O)c21 [compound 396] |  |  | 182 nM | 3650 nM |  | 
15 | CC1C=CC(C)N1C(=O)CON=C1/C=C/CC/C=C/CCOC(=O)c2c(O)cc(O)cc2C1 (stereo not drawn) [compound 387] | 118 nM | 568 nM |  |  |  | 
16 | CC1/C=C/CCCOC(=O)c2c(O)cc(O)cc2CC(=NOCC(=O)N2CCCCC2)/C=C/C1 (stereo not drawn) [compound 361] |  |  | 543 nM | 2960 nM |  | 
17 | C/C1=C\C(=NOCC(=O)N2CCCCC2)Cc2cc(O)cc(O)c2C(=O)O[C@H](C)C/C=C/CC1 [compound 336] |  |  | < 52 nM |  |  | 
18 | O=C1NCC/C=C/CC/C=C/C(=NOCC(=O)N2CCCCC2)Cc2c(Cl)c(O)cc(O)c21 [compound 395] | 97 nM | 754 nM |  |  |  | 
19 | O=C1OCC/C=C/CC/C=C/C(=NOCC(=O)N2CCOCC2)Cc2c(Cl)c(O)cc(O)c21 [13d] |  |  | 220 nM | > 10000 nM | > 10000 nM | > 10000 nM
20 | CNC(=O)CON=C1/C=C/CC/C=C/CCOC(=O)c2c(O)cc(O)c(Cl)c2C1 [13i] |  |  | 1200 nM |  | > 10000 nM | > 10000 nM
21 | C[C@@H]1C/C=C/CC/C=C/C(=O)Cc2c(Cl)c(O)cc(O)c2C(=O)O1 [pochonin D, Pochonin D, reference compound] |  |  | 360 nM | 3500 nM |  | 
22 | O=C1OCC/C=C/CC/C=C/C(=NOCC(=O)N2CCNCC2)Cc2cc(O)cc(O)c21 [compound 393] | 97 nM |  |  |  |  | 
23 | O=C(CON=C1/C=C/CC/C=C/CCOC(=O)c2c(O)cc(O)c(Cl)c2C1)NCCO [13h] |  |  | 390 nM | 7700 nM | 7500 nM | > 10000 nM
24 | CCCN(CCC)C(=O)CON=C1/C=C/CC/C=C/CCOC(=O)c2c(O)cc(O)cc2C1 [compound 389] | 155 nM | 454 nM |  |  |  | 
25 | O=C1OCC/C=C/CC/C=C/C(=NOCC(=O)N2CCCC2)Cc2cc(O)cc(O)c21 [compound 388] | 219 nM | 509 nM |  |  |  | 
26 | O=C(CON=C1/C=C/CC/C=C/CCOC(=O)c2c(O)cc(O)cc2C1)NCc1ccccc1 [compound 378] | 57 nM | 929 nM |  |  |  | 
27 | O=C1OCC/C=C/CC/C=C/C(=NOCC(=O)N2CCSCC2)Cc2cc(O)cc(O)c21 [compound 384] | 70 nM | 512 nM |  |  |  | 
28 | CCN(CC)C(=O)CON=C1/C=C/CC/C=C/CCOC(=O)c2c(O)cc(O)cc2C1 [compound 357] | 196 nM | 730 nM |  |  |  | 
29 | CC(C)N(C(=O)CON=C1/C=C/CC/C=C/CCOC(=O)c2c(O)cc(O)cc2C1)C(C)C [compound 379] | 162 nM | 627 nM |  |  |  | 
